How the values were obtained:
Type in all cases: biochemical
[1] = molecular target: T1, JAK1 (Homo sapiens, UniProt P23458); experiment: In vitro enzyme assay (cell-free HTRF kinase assay), JAK1; conditions: catalytic domain aa 850-1154, GST-tag; ATP 60 μM, SRCtide 400 nM, reaction 120 min
T1 construct: JAK1 (aa 850-1154) and TYK2 (aa 871-1187) are expressed with an N-terminally fused GST-tag; GST (N); purchased Carna Bioscience, Inc; host or cells: baculovirus expression system
How it was run: (§1)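 Catalytic-domain human kinases (baculovirus-expressed; JAK1 GST-tagged aa 850-1154, JAK2/JAK3 His-tagged) reacted with biotin-SRCtide and ATP in HEPES pH 7.5, MgCl2, DTT buffer, 1% DMSO, at room temperature. EDTA stop (10 mM final), then ULight-streptavidin/Eu-anti-phosphotyrosine overnight at 4 °C; HTRF 665/615 ratio gave IC50.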

[2] = molecular target: T2, JAK2 (Homo sapiens, UniProt O60674); experiment: In vitro enzyme assay (cell-free HTRF kinase assay), JAK2; conditions: catalytic domain, His-tag; ATP 10 μM, SRCtide 25 nM, reaction 30 min
T2 construct: All enzymes only contain the catalytic domain; His (N); purchased Carna Bioscience, Inc; host or cells: baculovirus expression system
T2 sequence (O60674 849-1124 limits assumed): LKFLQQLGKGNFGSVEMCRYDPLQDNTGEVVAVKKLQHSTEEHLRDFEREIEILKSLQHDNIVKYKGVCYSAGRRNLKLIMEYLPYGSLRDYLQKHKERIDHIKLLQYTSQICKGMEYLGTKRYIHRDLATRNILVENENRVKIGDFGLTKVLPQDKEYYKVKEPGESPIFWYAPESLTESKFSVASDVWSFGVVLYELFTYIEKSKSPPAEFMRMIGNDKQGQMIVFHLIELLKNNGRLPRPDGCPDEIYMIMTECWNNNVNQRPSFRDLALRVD
How it was run: as §1

[3] = molecular target: T3, JAK3 (Homo sapiens, UniProt P52333); experiment: In vitro enzyme assay (cell-free HTRF kinase assay), JAK3; conditions: catalytic domain, His-tag; ATP 3 μM, SRCtide 100 nM, reaction 30 min
T3 construct: All enzymes only contain the catalytic domain; His (N); purchased Carna Bioscience, Inc; host or cells: baculovirus expression system
T3 sequence (P52333 822-1111 limits assumed): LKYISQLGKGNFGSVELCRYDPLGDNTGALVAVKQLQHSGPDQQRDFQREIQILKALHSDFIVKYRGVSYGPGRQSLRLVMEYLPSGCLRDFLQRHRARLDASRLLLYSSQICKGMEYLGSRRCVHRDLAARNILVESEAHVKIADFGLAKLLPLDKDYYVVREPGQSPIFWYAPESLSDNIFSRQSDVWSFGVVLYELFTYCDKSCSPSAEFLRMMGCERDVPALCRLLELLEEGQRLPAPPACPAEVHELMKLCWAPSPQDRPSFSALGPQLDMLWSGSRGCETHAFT
How it was run: as §1

T1 sequence (P23458 850-1154): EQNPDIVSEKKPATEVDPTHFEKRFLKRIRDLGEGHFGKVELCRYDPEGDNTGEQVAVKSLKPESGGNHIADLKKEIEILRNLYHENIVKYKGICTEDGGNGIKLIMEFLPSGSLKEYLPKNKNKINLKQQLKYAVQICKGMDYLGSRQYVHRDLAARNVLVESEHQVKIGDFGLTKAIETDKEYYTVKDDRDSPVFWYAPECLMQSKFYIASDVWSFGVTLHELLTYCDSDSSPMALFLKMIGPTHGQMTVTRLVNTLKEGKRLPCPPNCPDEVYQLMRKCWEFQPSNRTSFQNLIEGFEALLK

| IC50 [1] [nM] | IC50 [2] [nM] | IC50 [3] [nM] | Compound |
| --- | --- | --- | --- |
| < 1000 | < 500 | < 500 | O=C(Nc1nccc2c1ccn2C(=O)c1c(Cl)cc(CNCCN2CCNC2=O)cc1Cl)C1CC1 [Compound No. 165, N-{1-[2,6-Dichloro-4-({[2-(2-oxoimidazolidin-1-yl)ethyl]amino}methyl)benzoyl]-1H-pyrrolo[3,2-c]pyridin-4-yl}cyclopropanecarboxamide] |
| < 500 | < 1000 | < 500 | O=C(NCCCN1CCOCC1)c1cc(Cl)c(C(=O)n2ccc3c(NC(=O)C4CC4)nccc32)c(Cl)c1 [Compound No. 149, 3,5-Dichloro-4-({4-[(cyclopropylcarbonyl)amino]-1H-pyrrolo[3,2-c]pyridin-1-yl}carbonyl)-N-[3-(morpholin-4-yl)propyl]benzamide] |
| < 500 | < 500 | < 100 | CNCc1cc(Cl)c(C(=O)n2ccc3c(NC(=O)C4CC4)nccc32)c(Cl)c1 [Compound No. 163, N-(1-{2,6-Dichloro-4-[(methylamino)methyl]benzoyl}-1H-pyrrolo[3,2-c]pyridin-4-yl)cyclopropanecarboxamide] |
| < 1000 | < 1000 | < 1000 | O=C(c1c(Cl)cc(CO)cc1Cl)c1c[nH]c2c(NC(=O)C3CC3)nccc12 [Compound No. 58, N-{3-[2,6-Dichloro-4-(hydroxymethyl)benzoyl]-1H-pyrrolo[2,3-c]pyridin-7-yl}cyclopropanecarboxamide] |

Further lines, the compound ahead of its results:

| Compound | IC50 [1] [nM] | IC50 [2] [nM] | IC50 [3] [nM] |
| --- | --- | --- | --- |
| Nc1cc(Cl)c(C(=O)c2c[nH]c3cnccc23)c(Cl)c1 [Compound No. 3, (4-Amino-2,6-dichlorophenyl)(1H-pyrrolo[2,3-c]pyridin-3-yl)methanone] | < 1000 | < 500 | < 1000 |
| O=C(O)CNC(=O)c1cc(Cl)c(C(=O)c2c[nH]c3c(NC(=O)C4CC4)nccc23)c(Cl)c1 [Compound No. 36, N-[3,5-Dichloro-4-({7-[(cyclopropylcarbonyl)amino]-1H-pyrrolo[2,3-c]pyridin-3-yl}carbonyl)benzoyl]glycine] | < 500 | < 100 | < 50 |
| O=C(NCC(O)CO)c1cc(Cl)c(C(=O)n2ccc3c(NC(=O)C4CC4)nccc32)c(Cl)c1 (stereo not drawn) [Compound No. 143, 3,5-Dichloro-4-({4-[(cyclopropylcarbonyl)amino]-1H-pyrrolo[3,2-c]pyridin-1-yl}carbonyl)-N-(2,3-dihydroxypropyl)benzamide] | < 1000 | < 500 | < 50 |

Reference: US8980911B2, “Heterocyclic compounds as protein kinase inhibitors” (Daiichi Sankyo Company, Limited, priority 2011, dated 2015)
